Data reported in PubChem BioAssay (NCI).
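Where inhibition never reached the appropriate level, the endpoint shown equals the highest concentration tested. Otherwise, values were interpolated linearly from a five-concentration, 48-hour dose response in 96-well plates. Abbreviation: GI50, concentration required for 50% inhibition of growth. TGI marks complete inhibition of growth.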

Key:
Assay in all cases: growth of human tumour cells (NCI), 48 h
[1] = test system: SK-MEL-5 melanoma
[2] = test system: U251 CNS
[3] = test system: SK-MEL-2 melanoma
[4] = test system: 786-0 renal
[5] = test system: OVCAR-4 ovarian
[6] = test system: RXF 393 renal
[7] = test system: SF-268 CNS
[8] = test system: HL-60(TB) leukemia
[9] = test system: HCT-116 colon
[10] = test system: CCRF-CEM leukemia
[11] = test system: MOLT-4 leukemia
[12] = test system: HOP-18 NSCLC
[13] = test system: UACC-62 melanoma
[14] = test system: OVCAR-5 ovarian
[15] = test system: NCI-H460 lung
[16] = test system: SF-539 CNS
[17] = test system: NCI-H226 lung
[18] = test system: K-562 leukemia
[19] = test system: SNB-19 CNS
[20] = test system: SW-620 colon
[21] = test system: SF-295 CNS
[22] = test system: NCI-H23 lung
[23] = test system: DLD-1 colon
[24] = test system: ACHN renal
[25] = test system: SK-MEL-28 melanoma
[26] = test system: SK-OV-3 ovarian
[27] = test system: RPMI-8226 leukemia
[28] = test system: OVCAR-3 ovarian
[29] = test system: SN12C renal
[30] = test system: LXFL 529 NSCLC
[31] = test system: SNB-75 CNS
[32] = test system: A549 NSCLC
[33] = test system: KM20L2 colon
[34] = test system: UO-31 renal
[35] = test system: UACC-257 melanoma
[36] = test system: LOX IMVI melanoma
[37] = test system: EKVX NSCLC
[38] = test system: MALME-3M melanoma
[39] = test system: HOP-62 NSCLC
[40] = test system: KM12 colon
[41] = test system: IGROV1 ovarian
[42] = test system: NCI-H522 lung
[43] = test system: HT29 colon
[44] = test system: CAKI-1 renal
[45] = test system: HCC-2998 colon
[46] = test system: OVCAR-8 ovarian
[47] = test system: M14 melanoma
[48] = test system: COLO 205 colon
[49] = test system: HCT-15 colon

SMILES: CC(=O)[CH-]C(=O)c1ccccc1.CC(=O)[CH-]C(=O)c1ccccc1.CC[O-].CC[O-].[Zr+4]
- GI50 [1]: > 100 µM
- TGI [1]: > 100 µM
- GI50 [2]: > 100 µM
- TGI [2]: > 100 µM
- GI50 [3]: > 100 µM
- TGI [3]: > 100 µM
- GI50 [4]: > 100 µM
- TGI [4]: > 100 µM
- GI50 [5]: > 100 µM
- TGI [5]: > 100 µM
- GI50 [6]: > 100 µM
- TGI [6]: > 100 µM
- GI50 [7]: > 100 µM
- TGI [7]: > 100 µM
- GI50 [8]: > 100 µM
- TGI [8]: > 100 µM
- GI50 [9]: > 100 µM
- TGI [9]: > 100 µM
- GI50 [10]: 69.7 µM
- TGI [10]: > 100 µM
- GI50 [11]: > 100 µM
- TGI [11]: > 100 µM
- GI50 [12]: > 100 µM
- TGI [12]: > 100 µM
- GI50 [13]: > 100 µM
- TGI [13]: > 100 µM
- GI50 [14]: > 100 µM
- TGI [14]: > 100 µM
- GI50 [15]: > 100 µM
- TGI [15]: > 100 µM
- GI50 [16]: > 100 µM
- TGI [16]: > 100 µM
- GI50 [17]: > 100 µM
- TGI [17]: > 100 µM
- GI50 [18]: > 100 µM
- TGI [18]: > 100 µM
- GI50 [19]: > 100 µM
- TGI [19]: > 100 µM
- GI50 [20]: > 100 µM
- TGI [20]: > 100 µM
- GI50 [21]: > 100 µM
- TGI [21]: > 100 µM
- GI50 [22]: > 100 µM
- TGI [22]: > 100 µM
- GI50 [23]: > 100 µM
- TGI [23]: > 100 µM
- GI50 [24]: > 100 µM
- TGI [24]: > 100 µM
- GI50 [25]: > 100 µM
- TGI [25]: > 100 µM
- GI50 [26]: > 100 µM
- TGI [26]: > 100 µM
- GI50 [27]: > 100 µM
- TGI [27]: > 100 µM
- GI50 [28]: > 100 µM
- TGI [28]: > 100 µM
- GI50 [29]: > 100 µM
- TGI [29]: > 100 µM
- GI50 [30]: > 100 µM
- TGI [30]: > 100 µM
- GI50 [31]: > 100 µM
- TGI [31]: > 100 µM
- GI50 [32]: > 100 µM
- TGI [32]: > 100 µM
- GI50 [33]: > 100 µM
- TGI [33]: > 100 µM
- GI50 [34]: > 100 µM
- TGI [34]: > 100 µM
- GI50 [35]: > 100 µM
- TGI [35]: > 100 µM
- GI50 [36]: > 100 µM
- TGI [36]: > 100 µM
- GI50 [37]: 91.6 µM
- TGI [37]: > 100 µM
- GI50 [38]: > 100 µM
- TGI [38]: > 100 µM
- GI50 [39]: > 100 µM
- TGI [39]: > 100 µM
- GI50 [40]: > 100 µM
- TGI [40]: > 100 µM
- GI50 [41]: > 100 µM
- TGI [41]: > 100 µM
- GI50 [42]: > 100 µM
- TGI [42]: > 100 µM
- GI50 [43]: > 100 µM
- TGI [43]: > 100 µM
- GI50 [44]: 62.8 µM
- TGI [44]: > 100 µM
- GI50 [45]: > 100 µM
- TGI [45]: > 100 µM
- GI50 [46]: > 100 µM
- TGI [46]: > 100 µM
- GI50 [47]: > 100 µM
- TGI [47]: > 100 µM
- GI50 [48]: > 100 µM
- TGI [48]: > 100 µM
- GI50 [49]: > 100 µM
- TGI [49]: > 100 µM
